Structures are written as SMILES.

KRAS^G12C, sequence (P01116 1-169 isoform P01116-2 G12C/C118A): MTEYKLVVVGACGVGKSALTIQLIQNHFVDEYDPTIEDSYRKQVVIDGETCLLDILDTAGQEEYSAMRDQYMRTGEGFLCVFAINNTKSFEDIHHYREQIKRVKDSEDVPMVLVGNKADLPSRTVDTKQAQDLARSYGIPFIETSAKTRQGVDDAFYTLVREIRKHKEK

The assay addresses KRAS^G12C (Homo sapiens, UniProt P01116, C118A/G12C). The assay can be described thus: Coupled Nucleotide Exchange Assay. The assay is classed as biochemical. The conditions noted are these: GDP-bound KRAS (aa 1-169) G12C/C118A; 2 h compound pre-incubation; SOS-mediated exchange, 30 min; cRAF binding (AlphaLISA). The method, then:
The KRAS^G12C coupled nucleotide exchange assay allows for the screening and profiling of KRAS^G12C antagonists/inhibitors by monitoring the binding of an effector protein (e.g., a Ras binding domain of Raf1, RBD-cRaf) to KRAS^G12C. Purified GDP-bound KRAS protein (aa 1-169), containing both G12C and C118A amino acid substitutions and an N-terminal His-tag, was pre-incubated in assay buffer (25 mM HEPES pH 7.4, 10 mM MgCl2, 0.01% Triton X-100, either with or without 0.1% BSA) with serially diluted compound for 2 h. For all subsequent steps, BSA was omitted and DTT was added to the reaction buffer at a final concentration of 1 mM. Following compound pre-incubation, purified SOS protein (aa 564-1049) and GTP (Roche 10106399001) were added to the assay wells and incubated for an additional 30 min. To determine the extent of inhibition of SOS-mediated nucleotide exchange, purified GST-tagged cRAF (aa 1-149), nickel chelate AlphaLISA acceptor beads (PerkinElmer AL108R), and AlphaScreen glutathione donor beads (PerkinElmer 6765302) were added to the assay wells and incubated for 5-30 min. The assay plates were then read on a plate reader measuring luminescence signal. Signal intensity of compound-containing wells were normalized to DMSO control, and data were analyzed using a 4-parameter logistic model to calculate IC50 values.
A general note: In Alpha technology, singlet oxygen from a donor bead excites a nearby acceptor bead.
`C=CC(=O)N1CCN([C@@H]2CN(c3cc(N4CC[C@@]5(CC4C)OCCc4ncsc45)nc(C(F)(F)F)n3)[C@@H]2C)CC1` (single isomer, unassigned) [Compound 3-091-2]: the IC50 is 883 nM.
The same measure for `C=CC(=O)N1CCN([C@@H]2CN(c3cc(N4CCC5(C=CCO5)CC4)nc(C(F)(F)F)n3)[C@@H]2C)CC1` [Compound 3-011, 1-(4-((2R,3R)-1-(6-(1-oxa-8-aza-spiro[4.5]dec-3-en-8-yl)-2-(tri-fluoromethyl)pyrimidin-4-yl)-2-methylazetidin-3-yl)piperazin-1-yl)prop-2-en-1-one]: 964 nM; for `C=CC(=O)N1CCN([C@@H]2CN(c3cc(N4CCC5(CC4)COc4nccc(C)c45)nc(C(F)F)n3)[C@@H]2C)CC1` [Compound 3-086, 1-(4-((2R,3R)-1-(2-(difluoromethyl)-6-(4-methyl-2H-spiro[furo[2.3-b]pyridine-3,4′-piperidin]-1′-yl)pyrimidin-4-yl)-2-methylazetidin-3-yl)piperazin-1-yl)prop-2-en-1-one]: 2910 nM; for `C=CC(=O)N1CCN(C2CN(c3cc(N4CCC5(CC4)OC(C)(C)c4ccccc45)nc(C(F)(F)F)c3C#N)C2)CC1` [Compound 3-040, 4-(3-(4-acryloylpiperazin-1-yl)azetidin-1-yl)-6-(3,3-dimethyl-3H-spiro[isobenzofuran-1,4′-piperidin]-1′-yl)-2-(trifluoromethyl)nicotinonitrile]: 2840 nM.
The same measure for `C=CC(=O)N1CCN(C2CN(c3cc(N4CCC5(CC4)CN(CC)C(=O)O5)nc(C(F)(F)F)c3C#N)C2)CC1` [Compound 3-033, 4-(3-(4-acryloylpiperazin-1-yl)azetidin-1-yl)-6-(3-ethyl-2-oxo-1-oxa-3,8-diazaspiro[4.5]decan-8-yl)-2-(trifluoromethyl)nicotinonitrile]: 6190 nM; for `C=CC(=O)N1CCN([C@@H]2CN(c3cc(N4CCC5(CC4)OCc4nccc(C)c45)nc(C(F)F)n3)[C@@H]2C)CC1` [Compound 3-080]: 353 nM.
Turning to `C=CC(=O)N1CCN(C2CN(c3cc(N4CCC5(CCCCO5)CC4)nc(C(F)(F)F)c3C#N)C2)CC1` [Compound 3-035, 4-(3-(4-acryloylpiperazin-1-yl)azetidin-1-yl)-6-(1-oxa-9-azaspiro[5.5]undecan-9-yl)-2-(trifluoromethyl)nicotinonitrile], the IC50 turned out to be 3580 nM. Against the preceding molecule, the IC50 is about 10-fold higher.
To `C=CC(=O)N1CCN(C2CN(c3cc(N4C5CCC4CC4(CCCO4)C5)nc(C(F)(F)F)n3)C2)CC1` (centres unmarked) [Compound 3-025, 1-(4-(1-(6-(dihydro-3′H-8-azaspiro[bicyclo[3.2.1]octane-3,2′-furan]-8-yl)-2-(trifluoromethyl)pyrimidin-4-yl)azetidin-3-yl)piperazin-1-yl)prop-2-en-1-one] belongs 3720 nM; to `C=CC(=O)N1CCN(C2CN(c3cc(N4CCC5(C=CC(C)O5)CC4)nc(C(F)(F)F)c3C#N)C2)CC1` (centres unmarked) [Compound 3-066, 4-(3-(4-acryloylpiperazin-1-yl)azetidin-1-yl)-6-(2-methyl-1-oxa-8-azaspiro[4.5]dec-3-en-8-yl)-2-(trifluoromethyl)nicotinonitrile], 550 nM.
To `C=CC(=O)N1CCN([C@@H]2CN(c3cc(N4CCC5(C[C@@H]4C)OCC=C5C)nc(C(F)F)n3)[C@@H]2C)CC1` (stereo partly drawn) [Compound 3-007, 1-(4-((2R,3R)-1-(2-(difluorometh-yl)-6-(4.7-dimethyl-1-oxa-8-aza-spiro[4.5]dec-3-en-8-yl)pyrimidin-4-yl)-2-methyl-azetidin-3-yl)piper-azin-1-yl)-prop-2-en-1-one] belongs 6570 nM; to `C=CC(=O)N1CCN(C2CN(c3cc(N4CCC5(CC4)CCN(C4COC4)C5)nc(C(F)(F)F)c3C#N)C2)CC1` [Compound 3-048, 4-(3-(4-acryloylpiperazin-1-yl)azetidin-1-yl)-6-(2-(oxetan-3-yl)-2,8-diazaspiro[4.5]decan-8-yl)-2-(trifluoromethyl)nicotinonitrile], 2290 nM.
Take `C=CC(=O)N1CCN(C2CN(c3cc(N4CCC5(CC4)COCCO5)nc(C(F)(F)F)c3C#N)C2)CC1` [Compound 3-024, 4-(3-(4-acryloylpiperazin-1-yl)azetidin-1-yl)-6-(1,4-dioxa-9-azaspiro[5.5]undecan-9-yl)-2-(trifluoromethyl)nicotinonitrile]: the IC50 was found to be 6100 nM.
The same measure for `C=CC(=O)N1CCN([C@@H]2CN(c3cc(N4CCC5(C=CCOC5)CC4)nc(C(F)(F)F)n3)[C@@H]2C)CC1` [Compound 3-021, 1-(4-((2R,3R)-1-(6-(2-Oxa-9-azaspiro[5.5]undec-4-en-9-yl)-2-(trifluoromethyl)pyrimidin-4-yl)-2-methylazetidin-3-yl)piperazin-1-yl) prop-2-en-1-one]: 3860 nM.
The same measure for `C=CC(=O)N1CCN([C@@H]2CN(c3cc(N4CCC5(CCC(=O)N5C)CC4)nc(C(F)(F)F)n3)[C@@H]2C)CC1` [Compound 3-020, 8-(6-((2R,3R)-3-(4-Acryloylpiperazin-1-yl)-2-methylazetidin-1-yl)-2-(trifluoromethyl)pyrimidin-4-yl)-1-methyl-1,8-diazaspiro[4.5]decan-2-one]: 1600 nM; for `C=CC(=O)N1CCN(C2CN(c3cc(N4CCC5(CC4)CC(C#N)CO5)nc(C(F)(F)F)c3C#N)C2)CC1` (centres unmarked) [Compound 3-030, 8-(4-(3-(4-acryloylpiperazin-1-yl)azetidin-1-yl)-5-cyano-6-(trifluoromethyl)pyridin-2-yl)-1-oxa-8-azaspiro[4.5]decane-3-carbonitrile]: 9590 nM.
To `C=CC(=O)N1CCN([C@@H]2CN(c3cc(N4CCC5(C=CCO5)CC4)nc(C(F)F)n3)[C@@H]2C)CC1` [Compound 3-012, 1-(4-((2R,3R)-1-(2-(difluorometh-yl)-6-(1-oxa-8-azaspiro[4.5]dec-3-en-8-yl)pyrimidin-4-yl)-2-methyl-azetidin-3-yl)piperazin-1-yl)prop-2-en-1-one] belongs 2540 nM.
Consider `C=CC(=O)N1CCN(C2CN(c3cc(N4CCC5(CCc6ccccc65)CC4)nc(C(F)(F)F)n3)C2)CC1` [Compound 3-063, 1-(4-(1-(6-(2,3-Dihydrospiro[indene-1,4′-piperidin]-1′-yl)-2-(trifluoromethyl)pyrimidin-4-yl)azetidin-3-yl)piperazin-1-yl) prop-2-en-1-one], for which the IC50 was found to be 8240 nM.
In turn, `C=CC(=O)N1CCN([C@@H]2CN(c3cc(N4C5CCC4CC4(CCCO4)C5)nc(C(F)(F)F)n3)[C@@H]2C)CC1` (stereo partly drawn) [Compound 3-026, 1-(4-((2R,3R)-1-(6-(dihydro-3′H-8-azaspiro[bicyclo[3.2.1]octane-3,2′-furan]-8-yl)-2-(trifluoromethyl)pyrimidin-4-yl)-2-methylazetidin-3-yl)piperazin-1-yl)prop-2-en-1-one] returned a 50% inhibitory concentration (IC50) of 1950 nM. This IC50 lies about 4.2-fold lower than the previous one.
Turning to `C=CC(=O)N1CCN([C@@H]2CN(c3cc(N4CCC5(CC4)C(F)(F)C54CC4)nc(C(F)(F)F)n3)[C@@H]2C)CC1` [Compound 3-022, 1-(4-((2R,3R)-1-(6-(10.10-difluoro-7-azadispiro[2.0.5^4.1^3]decan-7-yl)-2-(trifluoromethyl)pyrimidin-4-yl)-2-methylazetidin-3-yl)piperazin-1-yl)prop-2-en-1-one], the IC50 was 5610 nM. This IC50 is about 2.9-fold higher than that of the molecule before.
`C=CC(=O)N1CCN(C2CN(c3cc(N4CCC5(CC4)O[C@@H](C)C=C5Cl)nc(C(F)(F)F)c3C#N)C2)CC1` (single isomer, unassigned) [Compound 3-067-2] returned a half-maximal inhibitory concentration (IC50) of 867 nM.

The IC50 is the midpoint of a concentration-inhibition curve.

The record behind these values is patent US20260327243A1, “SPIRO-HETEROCYCLIC INHIBITORS OF KRAS G12C MUTANT PROTEINS AND USES THEREOF” (AMGEN INC., priority 2023, published 2026).
